Experimental data published in paper PMC5494963 (Chemical research in toxicology, 2011).

Target: cytochrome c oxidase (complex IV) (Bos taurus, UniProt P00396)
Experiment: spectrophotometric ferrocytochrome c oxidation at […] nm
Type: biochemical

How did the Ki turn out when `S` [sulfide] was run?
Its Ki is 85 nM.
